Experimental data: patent US12077503B2, “Substituted cyclic amides and their use as herbicides” (FMC CORPORATION, priority 2015, dated 2024)

Columns and labels:
Type in all cases: in vivo
[1] = tested on: ryegrass, Italian (Italian ryegrass, Lolium multiflorum); test: Test A preemergence; conditions: Lolium multiflorum, pre-emergence, 240 h, 0 to 100 scale where 0 is no effect and 100 is complete control, read-out: Ryegrass, Italian plant response rating; for pest or weed control at 31 g/ha: 31 g ai/ha, Preemergence; for pest or weed control at 125 g/ha: 125 g ai/ha, preemergence, visual injury rating, approximately 10 d
Method in brief: (§1)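 In a loam soil and sand blend, planted seeds got a preemergence directed soil spray, and young plants at the one- to two-leaf stage, 2–10 cm high, got a postemergence application; ~10 d greenhouse hold; injury rated visually, 0 = none, 100 = complete control.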

[2] = tested on: giant foxtail (Setaria faberii); test: Test A preemergence; conditions: Setaria faberi, pre-emergence, 240 h, 0 to 100 scale where 0 is no effect and 100 is complete control, read-out: Foxtail, Giant plant response rating; for pest or weed control at 31 g/ha: 31 g ai/ha, Preemergence; for pest or weed control at 125 g/ha: 125 g ai/ha, preemergence, visual injury rating, approximately 10 d
Method in brief: as §1

[3] = tested on: Kochia (Kochia scoparia); test: Test A preemergence; conditions: Bassia scoparia, pre-emergence, 240 h, 0 to 100 scale where 0 is no effect and 100 is complete control, read-out: Kochia plant response rating; for pest or weed control at 31 g/ha: 31 g ai/ha, Preemergence; for pest or weed control at 125 g/ha: 125 g ai/ha, preemergence, visual injury rating, approximately 10 d
Method in brief: as §1

[4] = tested on: pigweed (Amaranthus retroflexus); test: Test A preemergence; conditions: Amaranthus retroflexus, pre-emergence, 240 h, 0 to 100 scale where 0 is no effect and 100 is complete control, read-out: Pigweed plant response rating; for pest or weed control at 31 g/ha: 31 g ai/ha, Preemergence; for pest or weed control at 125 g/ha: 125 g ai/ha, preemergence, visual injury rating, approximately 10 d
[5] = tested on: ragweed (common ragweed, Ambrosia elatior); test: Test A preemergence; conditions: Ambrosia artemisiifolia, pre-emergence, 240 h, 0 to 100 scale where 0 is no effect and 100 is complete control, read-out: Ragweed plant response rating; for pest or weed control at 31 g/ha: 31 g ai/ha, Preemergence; for pest or weed control at 125 g/ha: 125 g ai/ha, preemergence, visual injury rating, approximately 10 d
Method in brief: as §1

[6] = tested on: barnyardgrass (Echinochloa crus-galli); test: Test A preemergence; conditions: Echinochloa crus-galli, pre-emergence, 240 h, 0 to 100 scale where 0 is no effect and 100 is complete control, read-out: Barnyardgrass plant response rating; for pest or weed control at 31 g/ha: 31 g ai/ha, Preemergence; for pest or weed control at 125 g/ha: 125 g ai/ha, preemergence, visual injury rating, approximately 10 d
Method in brief: as §1

[7] = tested on: ryegrass, Italian (Italian ryegrass, Lolium multiflorum); test: Test A postemergence; conditions: Lolium multiflorum, post-emergence, 240 h, Postemergence, read-out: Ryegrass, Italian plant response rating (0 to 100 scale); for pest or weed control at 125 g/ha: 125 g ai/ha, visual rating about 10 d after treatment; for pest or weed control at 31 g/ha: 31 g ai/ha, 0 is no effect, 100 is complete control
Method in brief: as §1

[8] = tested on: giant foxtail (Setaria faberii); test: Test A postemergence; conditions: Setaria faberi, post-emergence, 240 h, Postemergence, read-out: Foxtail, Giant plant response rating (0 to 100 scale); for pest or weed control at 125 g/ha: 125 g ai/ha, visual rating about 10 d after treatment; for pest or weed control at 31 g/ha: 31 g ai/ha, 0 is no effect, 100 is complete control
Method in brief: as §1

[9] = tested on: corn (Zea mays); test: Test A postemergence; conditions: Zea mays, post-emergence, 240 h, Postemergence, read-out: Corn plant response rating (0 to 100 scale); for plant injury at 125 g/ha: 125 g ai/ha, visual rating about 10 d after treatment; for plant injury at 31 g/ha: 31 g ai/ha, 0 is no effect, 100 is complete control
Method in brief: as §1

[10] = tested on: Kochia (Kochia scoparia); test: Test A postemergence; conditions: Bassia scoparia, post-emergence, 240 h, Postemergence, read-out: Kochia plant response rating (0 to 100 scale); for pest or weed control at 125 g/ha: 125 g ai/ha, visual rating about 10 d after treatment; for pest or weed control at 31 g/ha: 31 g ai/ha, 0 is no effect, 100 is complete control
Method in brief: as §1

[11] = tested on: pigweed (Amaranthus retroflexus); test: Test A postemergence; conditions: Amaranthus retroflexus, post-emergence, 240 h, Postemergence, read-out: Pigweed plant response rating (0 to 100 scale); for pest or weed control at 125 g/ha: 125 g ai/ha, visual rating about 10 d after treatment; for pest or weed control at 31 g/ha: 31 g ai/ha, 0 is no effect, 100 is complete control
Method in brief: as §1

[12] = tested on: blackgrass (Alopecurus myosuroides); test: Test A postemergence; conditions: Alopecurus myosuroides, post-emergence, 240 h, Postemergence, read-out: Blackgrass plant response rating (0 to 100 scale); for pest or weed control at 125 g/ha: 125 g ai/ha, visual rating about 10 d after treatment; for pest or weed control at 31 g/ha: 31 g ai/ha, 0 is no effect, 100 is complete control
Method in brief: as §1

[13] = tested on: ragweed (common ragweed, Ambrosia elatior); test: Test A postemergence; conditions: Ambrosia artemisiifolia, post-emergence, 240 h, Postemergence, read-out: Ragweed plant response rating (0 to 100 scale); for pest or weed control at 125 g/ha: 125 g ai/ha, visual rating about 10 d after treatment; for pest or weed control at 31 g/ha: 31 g ai/ha, 0 is no effect, 100 is complete control
Method in brief: as §1

[14] = tested on: Galium (catchweed bedstraw, Galium aparine); test: Test A postemergence; conditions: Galium, post-emergence, 240 h, Postemergence, read-out: Galium plant response rating (0 to 100 scale); for pest or weed control at 125 g/ha: 125 g ai/ha, visual rating about 10 d after treatment; for pest or weed control at 31 g/ha: 31 g ai/ha, 0 is no effect, 100 is complete control
Method in brief: as §1

[15] = tested on: wheat (Triticum aestivum); test: Test A postemergence; conditions: Triticum aestivum, post-emergence, 240 h, Postemergence, read-out: Wheat plant response rating (0 to 100 scale); for plant injury at 125 g/ha: 125 g ai/ha, visual rating about 10 d after treatment; for plant injury at 31 g/ha: 31 g ai/ha, 0 is no effect, 100 is complete control
Method in brief: as §1

[16] = tested on: barnyardgrass (Echinochloa crus-galli); test: Test A postemergence; conditions: Echinochloa crus-galli, post-emergence, 240 h, Postemergence; for pest or weed control at 125 g/ha: 125 g ai/ha, visual rating about 10 d after treatment, read-out: Barnyardgrass plant response rating (0 to 100 scale, 0 no effect, 100 complete control); for pest or weed control at 31 g/ha: 31 g ai/ha, 0 is no effect, 100 is complete control, read-out: Barnyardgrass plant response rating (0 to 100 scale)
Method in brief: as §1

[17] = tested on: sedge, umbrella (small-flower umbrella sedge, Cyperus difformis); test: Test B flooded paddy test; conditions: Cyperus difformis, 250 g ai/ha, Flood; 0 to 100 scale where 0 is no effect and 100 is complete control; read-out: Sedge, Umbrella plant response rating
Method in brief: (§2)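 2-leaf plants; pots flooded 3 cm over soil; cpd added to paddy water; depth held; greenhouse 13–15 d; visual rating vs controls, 0 = no effect, 100 = complete control.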

[18] = tested on: rice (Oryra sativa); test: Test B flooded paddy test; conditions: Oryza sativa, 250 g ai/ha, Flood; 0 to 100 scale where 0 is no effect and 100 is complete control; read-out: Rice plant response rating
Method in brief: as §2

[19] = tested on: ducksalad (Heteranthera limosa); test: Test B flooded paddy test; conditions: Heteranthera limosa, 250 g ai/ha, Flood; 0 to 100 scale where 0 is no effect and 100 is complete control; read-out: Ducksalad plant response rating
Method in brief: as §2

[20] = tested on: barnyardgrass (Echinochloa crus-galli); test: Test B flooded paddy test; conditions: Echinochloa crus-galli, 250 g ai/ha, Flood; 0 to 100 scale where 0 is no effect and 100 is complete control; read-out: Barnyardgrass plant response rating
Method in brief: as §2

Row | SMILES | pest or weed control at 31 g/ha [1] [%] | pest or weed control at 125 g/ha [1] [%] | pest or weed control at 31 g/ha [2] [%] | pest or weed control at 125 g/ha [2] [%] | pest or weed control at 31 g/ha [3] [%] | pest or weed control at 125 g/ha [3] [%] | pest or weed control at 31 g/ha [4] [%] | pest or weed control at 125 g/ha [4] [%] | pest or weed control at 31 g/ha [5] [%] | pest or weed control at 125 g/ha [5] [%] | pest or weed control at 31 g/ha [6] [%] | pest or weed control at 125 g/ha [6] [%] | pest or weed control at 125 g/ha [7] [%] | pest or weed control at 31 g/ha [7] [%] | pest or weed control at 125 g/ha [8] [%] | pest or weed control at 31 g/ha [8] [%] | plant injury at 125 g/ha [9] [%] | plant injury at 31 g/ha [9] [%] | pest or weed control at 125 g/ha [10] [%] | pest or weed control at 31 g/ha [10] [%] | also measured
1 | CN1C[C@H](c2cccc(C#N)c2)[C@@H](C(=O)Nc2ccccc2F)C1=O [Compound 1285] | 0 | 0 | 90 | 100 | 20 | 30 | 0 | 0 | 30 | 30 | 40 | 90 | 0 | 0 | 70 | 40 | 0 | 0 | 0 | 0 | pest or weed control at 125 g/ha [11]: 20%; pest or weed control at 31 g/ha [11]: 20%; pest or weed control at 125 g/ha [12]: 0%; pest or weed control at 31 g/ha [12]: 0%; pest or weed control at 125 g/ha [13]: 0%; pest or weed control at 31 g/ha [13]: 0%; pest or weed control at 125 g/ha [14]: 30%; pest or weed control at 31 g/ha [14]: 20%; plant injury at 125 g/ha [15]: 0%; plant injury at 31 g/ha [15]: 0%; pest or weed control at 125 g/ha [16]: 80%; pest or weed control at 31 g/ha [16]: 60%; pest or weed control at 250 g/ha [17]: 0%; pest or weed control at 250 g/ha [18]: 25%; pest or weed control at 250 g/ha [19]: 90%; pest or weed control at 250 g/ha [20]: 60%
2 | CN1C[C@H](c2cccc(C#N)c2)[C@@H](C(=O)Nc2ccc(F)c(F)c2F)C1=O [Compound 1287] | 0 | 40 | 100 | 100 | 20 | 70 | 0 | 40 | 0 | 0 | 90 | 100 | 0 | 0 | 80 | 70 | 0 | 0 | 30 | 0 | pest or weed control at 125 g/ha [11]: 0%; pest or weed control at 31 g/ha [11]: 0%; pest or weed control at 125 g/ha [12]: 20%; pest or weed control at 31 g/ha [12]: 0%; pest or weed control at 125 g/ha [13]: 0%; pest or weed control at 31 g/ha [13]: 0%; pest or weed control at 125 g/ha [14]: 40%; pest or weed control at 31 g/ha [14]: 30%; plant injury at 125 g/ha [15]: 0%; plant injury at 31 g/ha [15]: 0%; pest or weed control at 125 g/ha [16]: 90%; pest or weed control at 31 g/ha [16]: 80%; pest or weed control at 250 g/ha [17]: 0%; pest or weed control at 250 g/ha [18]: 15%; pest or weed control at 250 g/ha [19]: 80%; pest or weed control at 250 g/ha [20]: 75%
